According to US20180146698A1, “FORMULA FEED FOR POULTRY” (JXTG Nippon Oil & Energy Corporation, priority 2015, published 2018):

Experiments:
Julia Light hens [1] = experiment: Chicken egg color enhancement test 1: yolk color fan value, low- and standard-corn-content feed; assay type: in vivo, chickens
Experimental: A preparation of dry cells of a Paracoccus bacterium (with an astaxanthin content of 2%) and a paprika colorant preparation (with a t-capsanthin content of 0.25%) were used as coloring agents for evaluation. Cells of a nitrosoguanidine mutant strain obtained from the Paracoccus carotinifaciens E-396 strain (FERM BP-4283) were used as carotenoid-producing Paracoccus bacterial cells for a preparation of dry cells of a Paracoccus bacterium. The preparation was cultured in a seed flask medium and then cultured in a main culture medium at 28° C. under aerobic conditions until the bacterial cell concentration reached the maximum level. Next, the cultured cells were collected and recovered using a centrifuge. The recovered Paracoccus bacterial cells were dried using a double drum dryer at a drum rotation speed of 3.5 rpm and a drum temperature of 140° C. The average particle size (volume particle size D50) of the obtained power was approximately […]. The powder was further finely powderized (pulverized) using a jet mill (Seishin Enterprise Co., Ltd.) so that the average particle size (D50) became 9 μm. The obtained product was used as a preparation of dry cells of a Paracoccus bacterium. As a paprika colorant preparation, Color Up (a product with a total xanthophyll concentration of 5 g/kg, Kohkin Chemical Co., Ltd.) was used. The above preparations were added to a low-corn-content feed and a standard-corn-content feed listed in Table 1, thereby preparing formula feeds each containing astaxanthin or t-capsanthin at a final concentration of 1, 2, 4, or 8 ppm. Table 2 lists measured concentrations of astaxanthin and t-capsanthin contained in the actually produced formula feeds. Julia Light hens were used for tests. Ten chickens were provided for each test plot. The acclimatization period was set to 2 weeks. Eggs collected in Week 2, during which the color fan value became stabilized, or later, were evaluated. Eggs were collected from each test plot. The color fan values of 10 chicken eggs were measured using Egg Multitester EMT-7300 (JA Z-Tamago Co., Ltd.) for each test plot. The yolk carotenoid concentration was determined for 3 eggs for each test plot. FIGS. 1 and 2 show the relationship between the concentrations of astaxanthin and t-capsanthin in both feeds and the yolk color fan values of the obtained eggs. Based on the results of FIGS. 1 and 2, the concentrations of astaxanthin and t-capsanthin to be added to the low-corn-content feed in order to achieve a desired color fan value of 10 to 15 were calculated (Table 3). For example, in order to achieve a color fan value of 13, astaxanthin may be added to the low-corn-content feed so as to result in a final concentration of 2.2 ppm. Meanwhile, t-capsanthin needs to be added so as to result in a final concentration of 4.3 ppm.

Julia Light hens [2] = experiment: Yolk carotenoid concentration by HPLC, eggs of Example 1; assay type: in vivo, chickens; details: colorant added at 1 to 8 ppm
Experimental: Eggs were collected from each test plot. The color fan values of 10 chicken eggs were measured using Egg Multitester EMT-7300 (JA Z-Tamago Co., Ltd.) for each test plot. The yolk carotenoid concentration was determined for 3 eggs for each test plot.
Carotenoid quantities in the yolk and each feed were determined via high performance liquid chromatography (HPLC) as described below.
Two columns (Inertsil SIL-100A, 5 μm (ϕ 4.6×250 mm), GL Sciences) were connected in series for use. Elution was carried out with the introduction of an n-hexane/tetrahydrofuran/methanol liquid mixture (40:20:1) as a mobile phase at a constant temperature (around room temperature) and a flow rate of 1.0 mL per minute. Upon determination, samples were each dissolved in tetrahydrofuran and appropriately diluted with the mobile phase such that injection volume was adjusted to 20 μL. The detection for column eluate was carried out at a wavelength of 470 nm.
The yolk carotenoid concentration of eggs obtained in Example 1 was determined by the method described in Example 1 for three eggs for each test plot.
The standard-corn-content feed and the low-corn-content feed were compared in terms of the colorant concentration in the yolk when the coloring agents used in Example 1 were added to each feed at concentrations of 1 to 8 ppm.

chickens [3] = experiment: Chicken egg color enhancement test 2: yolk color fan value, feeds with corn contents of 30% to 50%; assay type: in vivo; details: for color fan value compared with t-capsanthin: corn contents of 30% and 50%
Experimental: The effects of the present invention were confirmed using feeds with corn contents of 30% to 50% in the same manner as in Example 1. Formula feeds were prepared by adding astaxanthin or t-capsanthin to feeds with the compositions listed in Table 5 so as to result in a final concentration of 1 to 16 ppm. In this Example, the feeds were the same except the corn content and the content of brown rice, which is added depending on a decrease in the corn content, and corn-derived corn gluten meal was not mixed therein. FIGS. 8a and 8b show the relationship between the astaxanthin and t-capsanthin concentrations in the feeds with corn contents of 30% and 50% and the yolk color fan values for the obtained eggs. Based on the results of FIGS. 8a and 8b, the concentrations of astaxanthin and t-capsanthin to be added to a feed in order to achieve a desired color fan value of 10 to 15 were calculated for feeds with corn contents of 30% and 50% (Table 6).

chickens [4] = experiment: Yolk color measurement using colorimeter 1 (eggs of Example 5); assay type: in vivo; details: coloring agent 8 ppm or less; corn content 30% to 50%
Experimental: The yolk color was measured using a colorimeter (CM-700d, Konica Minolta Inc.) for eggs obtained in Example 5 and eggs obtained by using formula feeds listed in Table 5, which had been prepared by adding astaxanthin or t-capsanthin to a feed with a corn content of 40% so as to result in a final concentration of 2 ppm. FIGS. 9a to 9c show the measurement results of the L*, a*, and b* values, respectively.

chickens [5] = experiment: Yolk carotenoid content and composition 3 (eggs of Example 8); assay type: in vivo; details: 2 ppm or 4 ppm; corn contents of 0% to 30%; fed 2 to 4 weeks
Experimental: The yolk carotenoid concentration in eggs obtained in Example 8 was determined for five eggs for each test plot in the same manner as in Example 1.

[6] = desired CF value 10, low-corn-content feed
[7] = desired CF value 11, low-corn-content feed
[8] = desired CF value 12, low-corn-content feed
[9] = desired CF value 13, low-corn-content feed
[10] = desired CF value 14, low-corn-content feed
[11] = desired CF value 10, 30% Corn feed
[12] = desired CF value 10, 50% Corn feed
[13] = desired CF value 11, 30% Corn feed
[14] = desired CF value 11, 50% Corn feed
[15] = desired CF value 12, 30% Corn feed
[16] = desired CF value 12, 50% Corn feed
[17] = desired CF value 13, 30% Corn feed
[18] = desired CF value 13, 50% Corn feed
[19] = desired CF value 14, 30% Corn feed
[20] = desired CF value 14, 50% Corn feed
[21] = desired CF value 15, 30% Corn feed
[22] = desired CF value 15, 50% Corn feed

CC1=C(/C=C/C(C)=C/C=C/C(C)=C/C=C/C=C(C)/C=C/C=C(C)/C=C/C2=C(C)C(=O)[C@@H](O)CC2(C)C)C(C)(C)C[C@H](O)C1=O [Astaxanthin, astaxanthin]
amount of astaxanthin relative to t-capsanthin to achieve the desired color fan value (Julia Light hens [1]; color fan value of 13, low-corn-content feed): approximately 51% | change of color fan value, low-corn-content vs standard-corn-content feed (Julia Light hens [1]; colorant added at 4 ppm): increased | CF value (Julia Light hens [1]; colorant added at 4 ppm, standard-corn-content feed): 12.8 | Astaxanthin/t-Capsanthin ratio (Julia Light hens [1]; [6]): 0.56 | Colorant concentration in feed necessary for achieving the desired CF value (Julia Light hens [1]; [6]): 1.0 ppm | Astaxanthin/t-Capsanthin ratio (Julia Light hens [1]; [7]): 0.54 | Colorant concentration in feed necessary for achieving the desired CF value (Julia Light hens [1]; [7]): 1.3 ppm | Astaxanthin/t-Capsanthin ratio (Julia Light hens [1]; [8]): 0.53 | Colorant concentration in feed necessary for achieving the desired CF value (Julia Light hens [1]; [8]): 1.7 ppm | Astaxanthin/t-Capsanthin ratio (Julia Light hens [1]; [9]): 0.51 | Colorant concentration in feed necessary for achieving the desired CF value (Julia Light hens [1]; [9]): 2.2 ppm | Astaxanthin/t-Capsanthin ratio (Julia Light hens [1]; [10]): 0.53 | Colorant concentration in feed necessary for achieving the desired CF value (Julia Light hens [1]; [10]): 3.2 ppm | Colorant concentration in feed necessary for achieving the desired CF value (Julia Light hens [1]; desired CF value 15, low-corn-content feed): 7.0 ppm | yolk colorant concentration, low-corn-content vs standard-corn-content feed (Julia Light hens [2]): greater than that in eggs obtained from chickens fed with the standard-corn-content feed | color fan value compared with t-capsanthin (chickens [3]; coloring agent 1 to 8 ppm): greater than those obtained using t-capsanthin | color fan value compared with t-capsanthin (chickens [3]; coloring agent 16 ppm): no significant difference | Astaxanthin/t-Capsanthin ratio (chickens [3]; [11]): 62% | Colorant concentration in feed to achieve desired CF value (chickens [3]; [11]): 1.3 ppm | Astaxanthin/t-Capsanthin ratio (chickens [3]; [12]): 58% | Colorant concentration in feed to achieve desired CF value (chickens [3]; [12]): 1.4 ppm | Astaxanthin/t-Capsanthin ratio (chickens [3]; [13]): 61% | Colorant concentration in feed to achieve desired CF value (chickens [3]; [13]): 1.7 ppm | Astaxanthin/t-Capsanthin ratio (chickens [3]; [14]): 61% | Colorant concentration in feed to achieve desired CF value (chickens [3]; [14]): 1.9 ppm | Astaxanthin/t-Capsanthin ratio (chickens [3]; [15]): 61% | Colorant concentration in feed to achieve desired CF value (chickens [3]; [15]): 2.2 ppm | Astaxanthin/t-Capsanthin ratio (chickens [3]; [16]): 63% | Colorant concentration in feed to achieve desired CF value (chickens [3]; [16]): 2.5 ppm | Astaxanthin/t-Capsanthin ratio (chickens [3]; [17]): 64% | Colorant concentration in feed to achieve desired CF value (chickens [3]; [17]): 3.0 ppm | Astaxanthin/t-Capsanthin ratio (chickens [3]; [18]): 65% | Colorant concentration in feed to achieve desired CF value (chickens [3]; [18]): 3.4 ppm | Astaxanthin/t-Capsanthin ratio (chickens [3]; [19]): 63% | Colorant concentration in feed to achieve desired CF value (chickens [3]; [19]): 4.0 ppm | Astaxanthin/t-Capsanthin ratio (chickens [3]; [20]): 69% | Colorant concentration in feed to achieve desired CF value (chickens [3]; [20]): 4.7 ppm | Astaxanthin/t-Capsanthin ratio (chickens [3]; [21]): 64% | Colorant concentration in feed to achieve desired CF value (chickens [3]; [21]): 6.3 ppm | Astaxanthin/t-Capsanthin ratio (chickens [3]; [22]): 82% | Colorant concentration in feed to achieve desired CF value (chickens [3]; [22]): 8.0 ppm | a* value (red color) of yolk compared with t-capsanthin (chickens [4]): greater than that obtained with the addition of t-capsanthin | concentration transferred to the yolk compared with t-capsanthin (chickens [5]): greater than that of t-capsanthin
